≈ marks a conversion by molar mass, not a printed value. Read-outs that look alike come from different tables or passages of the source.
Legend:
[1] = system: Ser. marcescens A-20019; assay: MIC, tube dilution, Serratia marcescens A20019; format: cell-based; details: Serratia marcescens, A20019, Serratia marcescens A20019; overnight 37° C.; read-out: Minimum Inhibitory Concentration (M.I.C.)
From the text: (§1) Representative compounds of the present invention were subjected to in vitro antibiotic screening against a variety of microorganisms.

[2] = system: Ps. aeruginosa A-21213; assay: MIC, tube dilution, Pseudomonas aeruginosa A21213; format: cell-based; details: Pseudomonas aeruginosa A21213; overnight 37° C.; read-out: Minimum Inhibitory Concentration (M.I.C.)
From the text: as §1

[3] = system: Ent. cloacae A-9659; assay: MIC, tube dilution, Enterobacter cloacae A9659; format: cell-based; details: Enterobacter cloacae, A9659, Enterobacter cloacae A9659; overnight 37° C.; read-out: Minimum Inhibitory Concentration (M.I.C.)
From the text: as §1

[4] = system: Str. pneumoniae A-9585; assay: MIC, tube dilution, Streptococcus pneumoniae A9585; format: cell-based; details: Streptococcus pneumoniae, A9585, Str. pneumoniae A9585; overnight 37° C., Nutrient Broth; read-out: Minimum Inhibitory Concentration (M.I.C.)
From the text: as §1

[5] = system: Staph. aureus A-9537 and 50% serum; assay: MIC, tube dilution, Staph. aureus A9537 + 50% serum; format: cell-based, Staphylococcus aureus; details: Staphylococcus aureus, overnight 37° C., read-out: Minimum Inhibitory Concentration (M.I.C.)
From the text: as §1

[6] = system: K. pneumoniae A-15130; assay: MIC, tube dilution, Klebsiella pneumoniae A15130; format: cell-based; details: Klebsiella pneumoniae, A15130, K. pneumoniae A15130; overnight 37° C.; read-out: Minimum Inhibitory Concentration (M.I.C.)
From the text: as §1

[7] = system: Str. faecalis A-20688; assay: MIC, tube dilution, Streptococcus faecalis A20688; format: cell-based; details: Enterococcus faecalis, A20688, Str. faecalis A20688; overnight 37° C.; read-out: Minimum Inhibitory Concentration (M.I.C.)
From the text: as §1

[8] = system: Pr. morganii A-15153; assay: MIC, tube dilution, Proteus morganii A15153; format: cell-based; details: overnight 37° C.; for MIC: Morganella morganii, A15153, Proteus morganii A15153, read-out: Minimum Inhibitory Concentration (M.I.C.)
From the text: as §1

[9] = system: Staph. aureus A-9537; assay: MIC, tube dilution, Staphylococcus aureus A9537; format: cell-based; details: Staphylococcus aureus, A9537, Staph. aureus A9537; overnight 37° C., Nutrient Broth; read-out: Minimum Inhibitory Concentration (M.I.C.)
From the text: as §1

[10] = system: E. coli A-20341-1; assay: MIC, tube dilution, Escherichia coli A20341-1; format: cell-based
From the text: as §1

[11] = system: Str. pyogenes A-9604; assay: MIC, tube dilution, Streptococcus pyogenes A9604; format: cell-based; details: Streptococcus pyogenes, A9604, Str. pyogenes A9604; overnight 37° C., Nutrient Broth; read-out: Minimum Inhibitory Concentration (M.I.C.)
From the text: as §1

[12] = system: Ent. cloacae A-9656; assay: MIC, tube dilution, Enterobacter cloacae A9656; format: cell-based; details: Enterobacter cloacae, A9656, Enterobacter cloacae A9656; overnight 37° C.; read-out: Minimum Inhibitory Concentration (M.I.C.)
From the text: as §1

[13] = system: Ps. aeruginosa A-9843A; assay: MIC, tube dilution, Pseudomonas aeruginosa A9843A; format: cell-based; details: Pseudomonas aeruginosa, A9843A, read-out: Minimum Inhibitory Concentration (M.I.C.), Pseudomonas aeruginosa A9843A; overnight 37° C.
From the text: as §1

[14] = system: Staph. aureus (Meth-Res) A-15097; assay: MIC, tube dilution, Staphylococcus aureus A15097 (Meth-Res); format: cell-based; details: Staph. aureus A15097 (Meth-Res), overnight 37° C.; for MIC: Staphylococcus aureus, read-out: Minimum Inhibitory Concentration (M.I.C.)
From the text: as §1

[15] = system: Proteus rettgeri A21203; assay: MIC, tube dilution, Proteus rettgeri A21203; format: cell-based; details: Providencia rettgeri, A21203, Proteus rettgeri A21203; overnight 37° C.; read-out: Minimum Inhibitory Concentration (M.I.C.)
From the text: as §1

[16] = system: S. aureus A9537; assay: In vivo protection of mice, lethal infection with S. aureus A9537; details: Staphylococcus aureus, A9537, im, IM, 2 treatments, read-out: PD50
Experimental: Representative compounds of the present invention were also tested in vivo in mice and their PD50 (dose of compound in mg/kg required to protect 50% of the treated mice against an otherwise lethal infection of a micro-organism) values determined with respect to the test organisms shown below.

[17] = system: Proteus vulgaris A21559; assay: MIC, tube dilution, Proteus vulgaris A21559; format: cell-based; details: Proteus vulgaris, A21559, Proteus vulgaris A21559; overnight 37° C.; read-out: Minimum Inhibitory Concentration (M.I.C.)
From the text: as §1

[18] = system: Klebsiella species A20468; assay: MIC, tube dilution, Klebsiella species A20468; format: cell-based; details: Klebsiella species (K. pneumoniae) A20468; overnight 37° C.; read-out: Minimum Inhibitory Concentration (M.I.C.)
From the text: as §1

[19] = system: Pr. mirabilis A-9900; assay: MIC, tube dilution, Proteus mirabilis A9900; format: cell-based; details: overnight 37° C.; for MIC: Proteus mirabilis, A9900, Proteus mirabilis A9900, read-out: Minimum Inhibitory Concentration (M.I.C.)
From the text: as §1

[20] = system: Staph. aureus (Pen-Res) A-9606; assay: MIC, tube dilution, Staphylococcus aureus A9606 (Pen-Res); format: cell-based; details: Staphylococcus aureus, Staph. aureus A9606 (Pen-Res); overnight 37° C.; read-out: Minimum Inhibitory Concentration (M.I.C.)
From the text: as §1

[21] = system: E. coli A-15119; assay: MIC, tube dilution, Escherichia coli A15119; format: cell-based; details: Escherichia coli, A15119, E. coli A15119; overnight 37° C.; read-out: Minimum Inhibitory Concentration (M.I.C.)
From the text: as §1

[22] = system: Pr. vulgaris A-9716; assay: MIC, tube dilution, Proteus vulgaris / Proteus mirabilis A9716; format: cell-based, Proteus vulgaris (name changed to Proteus mirabilis); details: Proteus vulgaris, A9716, Proteus vulgaris / Proteus mirabilis A9716; overnight 37° C.; read-out: Minimum Inhibitory Concentration (M.I.C.)
From the text: as §1

[23] = Escherichia coli, A203411, E. coli A20341-1; overnight 37° C.; read-out: Minimum Inhibitory Concentration (M.I.C.)

| SMILES | MIC [1] | MIC [2] | MIC [3] | MIC [4] | MIC [5] | MIC [6] | MIC [7] | MIC [8] | MIC [9] | MIC [10, 23] | MIC [11] | MIC [12] | MIC [13] | MIC [14] | MIC [15] | MIC [17] | MIC [18] | MIC [19] | MIC [20] | MIC [21] | further results |
| --- | --- | --- | --- | --- | --- | --- | --- | --- | --- | --- | --- | --- | --- | --- | --- | --- | --- | --- | --- | --- | --- |
| CC1=C(C(=O)O)N2C(=O)[C@H]([C@@H](C)O)[C@H]2S1 (relative stereo) [Example 60, (1'R,5R,6S and 1'S,5S,6R) 6-(1'-Hydroxy-1'-ethyl)-2-methylpenem-3-carboxylic Acid (isomer B)] | 16 mg/L (≈ 69.8 µM) | > 125 mg/L | 32 mg/L (≈ 140 µM) | 0.25 mg/L (≈ 1.09 µM) | 8 mg/L | 16 mg/L (≈ 69.8 µM) | 63 mg/L (≈ 275 µM) | 32 mg/L (≈ 140 µM) | 2 mg/L (≈ 8.72 µM) | 16 mg/L (≈ 69.8 µM) | 1 mg/L (≈ 4.36 µM) | 16 mg/L (≈ 69.8 µM) | > 125 mg/L | 8 mg/L (≈ 34.9 µM) | 16 mg/L (≈ 69.8 µM) | 16 mg/L (≈ 69.8 µM) | 16 mg/L (≈ 69.8 µM) | 32 mg/L (≈ 140 µM) | 4 mg/L (≈ 17.4 µM) | 16 mg/L (≈ 69.8 µM) | Minimum Inhibitory Concentration (M.I.C.) ([8]; Proteus morganii A15153): 16 µg/mL; ED50 ([16]; 6.6 × 10^5 organisms): 7.7 mg/kg; Minimum Inhibitory Concentration (M.I.C.) ([19]; Proteus mirabilis A9900): 16 µg/mL |
| C[C@@H](O)[C@H]1C(=O)N2C(C(=O)O)=C(CN)S[C@H]12 (relative stereo) [Example 62, (1'R,5R,6S and 1'S,5S,6R) 2-Aminomethyl-6-(1'-hydroxy-1'-ethyl)-penem-3-carboxylic Acid (isomer B)] | 16 mg/L (≈ 65.5 µM) |  | 32 mg/L (≈ 131 µM) | 0.03 mg/L (≈ 0.123 µM) | 0.25 mg/L | 16 mg/L (≈ 65.5 µM) | 32 mg/L (≈ 131 µM) | 2 mg/L (≈ 8.19 µM) | 0.03 mg/L (≈ 0.123 µM) | 8 mg/L (≈ 32.8 µM) | 0.5 mg/L (≈ 2.05 µM) | 1 mg/L (≈ 4.09 µM) | 2 mg/L (≈ 8.19 µM) | 0.5 mg/L (≈ 2.05 µM) | 2 mg/L (≈ 8.19 µM) | 2 mg/L (≈ 8.19 µM) | 32 mg/L (≈ 131 µM) | 2 mg/L (≈ 8.19 µM) | 0.25 mg/L (≈ 1.02 µM) | 8 mg/L (≈ 32.8 µM) | ED50 ([16]; 8.6 × 10^5 organisms): 1 mg/kg |
| C[C@@H](O)[C@H]1C(=O)N2C(C(=O)O)=C(CCCCN)S[C@H]12 (relative stereo) [Example 64, (1'R,5R,6S and 1'S,5S,6R)-2-(4-Aminobutyl)-6-(1'-hydroxy-ethyl)-penem-3-carboxylic Acid (isomer B)] | 4 mg/L (≈ 14 µM) |  | 4 mg/L (≈ 14 µM) | 0.016 mg/L (≈ 0.0559 µM) | 0.13 mg/L | 4 mg/L (≈ 14 µM) | 4 mg/L (≈ 14 µM) | 4 mg/L (≈ 14 µM) | 0.06 mg/L (≈ 0.21 µM) | 2 mg/L (≈ 6.98 µM) | 0.03 mg/L (≈ 0.105 µM) | 16 mg/L (≈ 55.9 µM) | 16 mg/L (≈ 55.9 µM) | 0.25 mg/L (≈ 0.873 µM) | 4 mg/L (≈ 14 µM) | 2 mg/L (≈ 6.98 µM) | 4 mg/L (≈ 14 µM) | 4 mg/L (≈ 14 µM) | 0.13 mg/L (≈ 0.454 µM) | 2 mg/L (≈ 6.98 µM) | ED50 ([16]; 8 × 10^5 organisms): 0.04 mg/kg |
| C[C@@H](O)[C@H]1C(=O)N2C(C(=O)O)=C(COCCN)S[C@H]12 (relative stereo) [Example 66, (1'R,5R, 6S and 1'S,5S,6R) 6-(1'-Hydroxyethyl)-2-(2-aminoethoxymethyl)penem-3-carboxylic Acid (isomer B)] |  |  |  |  |  |  |  |  |  |  |  |  |  |  |  |  |  |  |  |  | ED50 ([16]; 1.1 × 10^6 organisms): 0.12 mg/kg |
| NCC1CC1C1=C(C(=O)O)N2C(=O)CC2S1 [Example 79, (1'R,2'S,5S and 1'S,2'R,5S; 1'S,2'R,5R and 1'R,2'S,5S) 2-(trans-2-aminomethyl-1-cyclopropyl)-penem-3-carboxylic acid] | 8 mg/L (≈ 33.3 µM) |  | 32 mg/L (≈ 133 µM) | 0.016 mg/L (≈ 0.0666 µM) | 0.25 mg/L | 16 mg/L (≈ 66.6 µM) | 16 mg/L (≈ 66.6 µM) | 16 mg/L (≈ 66.6 µM) | 0.06 mg/L (≈ 0.25 µM) | 16 mg/L (≈ 66.6 µM) | 0.03 mg/L (≈ 0.125 µM) |  |  | > 63 mg/L | 8 mg/L (≈ 33.3 µM) | 16 mg/L (≈ 66.6 µM) | > 63 mg/L | 8 mg/L (≈ 33.3 µM) | 0.5 mg/L (≈ 2.08 µM) | 4 mg/L (≈ 16.6 µM) | Minimum Inhibitory Concentration (M.I.C.) [14]: 125 µg/mL; ED50 ([16]; 8 × 10^5 organisms): 0.8 mg/kg |
| O=C(O)C1=C(c2cscn2)SC2CC(=O)N12 (stereo not shown) [Preparation 27, 2-(4'-Thiazolyl)penem-3-carboxylic Acid] | 63 mg/L (≈ 248 µM) | 125 mg/L (≈ 492 µM) | 125 mg/L (≈ 492 µM) | 0.13 mg/L (≈ 0.511 µM) | > 63 mg/L | 125 mg/L (≈ 492 µM) | 4 mg/L (≈ 15.7 µM) | 32 mg/L (≈ 126 µM) | 0.5 mg/L (≈ 1.97 µM) |  | 0.25 mg/L (≈ 0.983 µM) | 63 mg/L (≈ 248 µM) | 125 mg/L (≈ 492 µM) | 8 mg/L (≈ 31.5 µM) | 16 mg/L (≈ 62.9 µM) |  | > 125 mg/L | 4 mg/L (≈ 15.7 µM) | 8 mg/L (≈ 31.5 µM) | 8 mg/L (≈ 31.5 µM) | MIC [22]: 4 mg/L (≈ 15.7 µM); MIC ([10]; Escherichia coli, A203411; E. coli A20341-1; overnight 37° C.; read-out: Minimum Inhibitory Concentration (M.I.C.)): 125 mg/L (≈ 492 µM) |

Source: US4272437A, “Antibacterial agents, and 4-thio azetidinone intermediates” (priority 1979, dated 1981)
